Assay results as given in patent publication US20150225454A1, “TETRABRANCHED PEPTIDES AND ANALOGUES AS A NEW CLASS OF ANTIMICROBIALS AND THEIR PREPARATION THEREOF” (priority 2012, published 2015).
Converted amounts (≈) assume the structure as drawn. Where a SMILES comes first, the peptide text is derived from it. Bridges are numbered along the chain shown (N, C = ends). Roman numbers before positions name the chains, in order. Where no end group is shown, it is not given here.

Columns and labels:
[1] = cited from earlier work
[2] = temperature or pH; cited from earlier work
fungi = conditions: cited from earlier work
C. albicans = assay: microbe, parasite or virus in culture; assay type: cell-based; conditions: for antifungal activity: against both C. albicans and Fusarium strains
Method: The yeast strains were cultivated and suspended in Sabouraud's Dextrose (SD) broth diluted at one sixth at a starting OD600=˜0.08 in a flat-bottomed microtitre plate. A serial dilution of peptide in the same broth was mixed with the inoculum to give a final peptide concentration of 0.4-22 μM. The antifungal activity was assessed by monitoring the OD600 in cycles of 30 minutes and an orbital shaking at 100 rpm using an Infinite M200 microplate reader (Tecan Group Ltd., Switzerland) for 24/48 h at 37° C. Cultures without peptides were used as positive controls and broth alone or with 22 μM peptide served as negative controls. The minimum concentration required for complete inhibition was assessed by both visible observations as well as by measuring the OD600 and taken as the MIC. Each experiment was repeated in triplicates.

[3] = Calcein release from fungal model membrane SUVs; conditions: peptide:lipid ratio 1:30 and 1:15
Method: For the preparation of PC/PE/PI or PS/Erg SUV, the lipids were dissolved in chloroform/methanol (2:1, v/v) in a glass tube. Ergosterol was dissolved in same solvent and added to lipid mixture to make final ergosterol content of 15 wt %. The Lipid-ergosterol mixture was dried using nitrogen gas to form lipid layer. The film was hydrated in a buffer containing 20 mM PBS (pH 7), vortexed and sonicated. Each cycle of sonication (5 sec, 40° C.) is followed by freezing in liquid nitrogen and thawing on a water bath kept at 37° C. The procedure was repeated 5-6 times until an optically clear dispersion appeared. The SUV was divided into two parts. To the first part 50 mM calcein was added and incubated for 1 h. The excess calcein was removed by injecting 100 μL of the calcein-loaded SUV's into a Ultrahydrogel™ 250 (7.8 mm×300 mm) column equilibrated with 20 mM PBS (pH 7.0) and eluted isochratically at a flow rate of 1 ml/min for 1.5 column volumes. The calcein-loaded liposomes were mixed with calcein-free liposome (1:1) to adjust final liposome concentration. Peptide concentration was added to obtain 1:30 or 1:15 peptide:liposome ratio. Changes in the fluorescence signal after addition of peptide or Triton X-100 was measured on a PTI spectrofluorometer, using an excitation wavelength of 480 nm and emission wavelength of 512 nm. The Percentage calcein released at each time point was calculated using the equation: […]
Similar protocol was followed for the preparation of PC/Cholesterol SUVs.

IOBA-NHC cells = assay type: cell-based, human; conditions: 24 h
Method: IOBA-NHC cells were cultured under standard conditions (humidified atmosphere of 5% CO2 at 37° C.) in DMEM/F12 supplemented with 1 μg/ml bovine pancreas insulin, 2 ng/ml mouse epidermal growth factor, 0.1 μg/ml cholera toxin, […] hydrocortisone, 10% fetal bovine serum (FBS), 50 UI/ml penicillin, and 50 UI/ml streptomycin. Cells from passages 50-80 were used in all experiments. Every day, normal culture development was observed by phase-contrast microscopy. Cells were removed by gentle trypsin incubation at confluence and counted. They were seeded into 96 well culture plates (Corning, Schiphol-Rijk, The Netherlands) for microtitration analysis of flow cytotoxicity assay (˜10,000 cells/well). Cultures were kept at 37° C. for 24 h. Subconfluent cells (culture surface covering nearly 70%) were then exposed to various peptide concentrations (0.22-225 μM). Cytotoxicity was measured periodically using MultiTox-Fluor Multiplex assay kit (Promega, Wis., USA) by measuring the AFC fluorescence (λex=485 and λem=520 nm).

## Nc1nc(=O)[nH]cc1F [Peptide 5-FC, 5-FC]
[1]
  logP: −1.1
[2]
  Solubility: 1.05e+06 mg/L (≈ 8130 mM)
fungi
  Activity: Not active against filamentous fungii

## RGRKVVRRKK [Monomer, reference compound]
C. albicans
  antifungal activity: weak antifungal activity

## Clc1ccc(COC(Cn2ccnc2)c2ccc(Cl)cc2Cl)c(Cl)c1 (stereo not drawn) [Miconazole]
fungi
  Activity: Broad spectrum

## OC(Cn1cncn1)(Cn1cncn1)c1ccc(F)cc1F [Fluconazole]
[2]
  Solubility: 1 mg/L (≈ 0.00327 mM)
fungi
  Activity: Broad spectrum. Less effective against

## RGRKVVRRKKKRRVVKRGR [Linear Retrodimer, reference compound]
C. albicans
  antifungal activity: weak antifungal activity

## CC(C)[C@H](NC(=O)[C@H](CCCCN)NC(=O)[C@H](CCCNC(=N)N)NC(=O)CNC(=O)[C@@H](N)CCCNC(=N)N)C(=O)N[C@H](C(=O)N[C@@H](CCCNC(=N)N)C(=O)N[C@@H](CCCNC(=N)N)C(=O)NCCCC[C@H](NC(=O)[C@H](CCCNC(=N)N)NC(=O)[C@H](CCCNC(=N)N)NC(=O)[C@@H](NC(=O)[C@@H](NC(=O)[C@H](CCCCN)NC(=O)[C@H](CCCNC(=N)N)NC(=O)CNC(=O)[C@@H](N)CCCNC(=N)N)C(C)C)C(C)C)C(=O)N[C@@H](CCCCN)C(=O)O)C(C)C [Peptide B2088, reference compound] (I: H-RGRKVVRRKK-OH / II: H-RGRKVVRR; amide I:9-II:C; N-terminus and C-terminus assumed)
[3]
  calcein release: decreased calcein release
C. albicans
  decrease in MIC compared to the monomer: ~14 ×

## CC[C@H](C)C[C@H](C)CCCCCCCCC(=O)N[C@H]1C[C@@H](O)[C@@H](NCCN)NC(=O)[C@@H]2[C@@H](O)CCN2C(=O)[C@H]([C@H](O)CCN)NC(=O)[C@H]([C@H](O)[C@@H](O)c2ccc(O)cc2)NC(=O)[C@@H]2C[C@@H](O)CN2C(=O)[C@H]([C@@H](C)O)NC1=O [Caspofungin]
[2]
  Solubility: 370 mg/L (≈ 0.338 mM)
fungi
  Activity: Effective against Candida spp

## CCC(C)n1ncn(-c2ccc(N3CCN(c4ccc(OCC5COC(Cn6cncn6)(c6ccc(Cl)cc6Cl)O5)cc4)CC3)cc2)c1=O (stereo not drawn) [Itraconazole]
[2]
  Solubility: 0.00047 mg/L (≈ 6.66e-07 mM)

## CC(C)[C@H](N)C(=O)N[C@@H](CCCNC(=N)N)C(=O)NCC(=O)N[C@@H](CCCNC(=N)N)C(=O)N[C@H](C(=O)N[C@@H](CCCNC(=N)N)C(=O)N[C@@H](CCCCN)C(=O)N[C@@H](CCCNC(=N)N)C(=O)NCCCC[C@H](NC(=O)[C@H](CCCNC(=N)N)NC(=O)[C@H](CCCCN)NC(=O)[C@H](CCCNC(=N)N)NC(=O)[C@@H](NC(=O)[C@H](CCCNC(=N)N)NC(=O)CNC(=O)[C@H](CCCNC(=N)N)NC(=O)[C@@H](N)C(C)C)C(C)C)C(=O)NCCCC[C@H](NC(=O)[C@H](CCCCNC(=O)[C@H](CCCNC(=N)N)NC(=O)[C@H](CCCCN)NC(=O)[C@H](CCCNC(=N)N)NC(=O)[C@@H](NC(=O)[C@H](CCCNC(=N)N)NC(=O)CNC(=O)[C@H](CCCNC(=N)N)NC(=O)[C@@H](N)C(C)C)C(C)C)NC(=O)[C@H](CCCNC(=N)N)NC(=O)[C@H](CCCCN)NC(=O)[C@H](CCCNC(=N)N)NC(=O)[C@@H](NC(=O)[C@H](CCCNC(=N)N)NC(=O)CNC(=O)[C@H](CCCNC(=N)N)NC(=O)[C@@H](N)C(C)C)C(C)C)C(=O)N[C@@H](CCCCN)C(=O)O)C(C)C [Sc_B4010] (I: H-VRGRVRKRKKK-OH / II: H-VRGRVRKRK / III: H-VRGRVRKR / IV: H-VRGRVRKR; amide I:9-IV:C, I:10-II:C, II:9-III:C; N-terminus and C-terminus assumed)
[3]
  calcein release: decreased calcein release
[3]; listed as scrambled peptide
  calcein release: about 41%
C. albicans
  increase in MIC on scrambling the sequence of B4010: 2-4 fold

## CC(=O)N1CCN(c2ccc(OCC3COC(Cn4ccnc4)(c4ccc(Cl)cc4Cl)O3)cc2)CC1 (stereo not drawn) [Ketaconazole]
[2]
  Solubility: 0.09 (25° C.) mg/L
fungi
  Activity: Broad spectrum

## CC(C)[C@H](NC(=O)[C@H](CCCCN)NC(=O)[C@H](CCCNC(=N)N)NC(=O)CNC(=O)[C@@H](N)CCCNC(=N)N)C(=O)N[C@@H](C)C(=O)N[C@@H](CCCNC(=N)N)C(=O)N[C@@H](CCCNC(=N)N)C(=O)NCCCC[C@H](NC(=O)[C@H](CCCNC(=N)N)NC(=O)[C@H](CCCNC(=N)N)NC(=O)[C@H](C)NC(=O)[C@@H](NC(=O)[C@H](CCCCN)NC(=O)[C@H](CCCNC(=N)N)NC(=O)CNC(=O)[C@@H](N)CCCNC(=N)N)C(C)C)C(=O)NCCCC[C@H](NC(=O)[C@H](CCCCNC(=O)[C@H](CCCNC(=N)N)NC(=O)[C@H](CCCNC(=N)N)NC(=O)[C@H](C)NC(=O)[C@@H](NC(=O)[C@H](CCCCN)NC(=O)[C@H](CCCNC(=N)N)NC(=O)CNC(=O)[C@@H](N)CCCNC(=N)N)C(C)C)NC(=O)[C@H](CCCNC(=N)N)NC(=O)[C@H](CCCNC(=N)N)NC(=O)[C@H](C)NC(=O)[C@@H](NC(=O)[C@H](CCCCN)NC(=O)[C@H](CCCNC(=N)N)NC(=O)CNC(=O)[C@@H](N)CCCNC(=N)N)C(C)C)C(=O)N[C@@H](CCCCN)C(=O)O [Peptide B4010-V6A] (I: H-RGRKVARRKKK-OH / II: H-RGRKVARRK / III: H-RGRKVARR / IV: H-RGRKVARR; amide I:9-IV:C, I:10-II:C, II:9-III:C)
IOBA-NHC cells
  EC50: > 225 µM

## CC(C)[C@H](NC(=O)[C@H](C)NC(=O)[C@H](CCCNC(=N)N)NC(=O)CNC(=O)[C@@H](N)CCCNC(=N)N)C(=O)N[C@H](C(=O)N[C@@H](CCCNC(=N)N)C(=O)N[C@@H](CCCNC(=N)N)C(=O)NCCCC[C@H](NC(=O)[C@H](CCCNC(=N)N)NC(=O)[C@H](CCCNC(=N)N)NC(=O)[C@@H](NC(=O)[C@@H](NC(=O)[C@H](C)NC(=O)[C@H](CCCNC(=N)N)NC(=O)CNC(=O)[C@@H](N)CCCNC(=N)N)C(C)C)C(C)C)C(=O)NCCCC[C@H](NC(=O)[C@H](CCCCNC(=O)[C@H](CCCNC(=N)N)NC(=O)[C@H](CCCNC(=N)N)NC(=O)[C@@H](NC(=O)[C@@H](NC(=O)[C@H](C)NC(=O)[C@H](CCCNC(=N)N)NC(=O)CNC(=O)[C@@H](N)CCCNC(=N)N)C(C)C)C(C)C)NC(=O)[C@H](CCCNC(=N)N)NC(=O)[C@H](CCCNC(=N)N)NC(=O)[C@@H](NC(=O)[C@@H](NC(=O)[C@H](C)NC(=O)[C@H](CCCNC(=N)N)NC(=O)CNC(=O)[C@@H](N)CCCNC(=N)N)C(C)C)C(C)C)C(=O)N[C@@H](CCCCN)C(=O)O)C(C)C [Peptide B4010-K4A] (I: H-RGRAVVRRKKK-OH / II: H-RGRAVVRRK / III: H-RGRAVVRR / IV: H-RGRAVVRR; amide I:9-IV:C, I:10-II:C, II:9-III:C)
IOBA-NHC cells
  EC50: > 231 µM

## CC(C)[C@H](NC(=O)[C@H](C)NC(=O)[C@H](CCCCN)NC(=O)[C@H](CCCNC(=N)N)NC(=O)CNC(=O)[C@@H](N)CCCNC(=N)N)C(=O)N[C@@H](CCCNC(=N)N)C(=O)N[C@@H](CCCNC(=N)N)C(=O)NCCCC[C@H](NC(=O)[C@H](CCCNC(=N)N)NC(=O)[C@H](CCCNC(=N)N)NC(=O)[C@@H](NC(=O)[C@H](C)NC(=O)[C@H](CCCCN)NC(=O)[C@H](CCCNC(=N)N)NC(=O)CNC(=O)[C@@H](N)CCCNC(=N)N)C(C)C)C(=O)NCCCC[C@H](NC(=O)[C@H](CCCCNC(=O)[C@H](CCCNC(=N)N)NC(=O)[C@H](CCCNC(=N)N)NC(=O)[C@@H](NC(=O)[C@H](C)NC(=O)[C@H](CCCCN)NC(=O)[C@H](CCCNC(=N)N)NC(=O)CNC(=O)[C@@H](N)CCCNC(=N)N)C(C)C)NC(=O)[C@H](CCCNC(=N)N)NC(=O)[C@H](CCCNC(=N)N)NC(=O)[C@@H](NC(=O)[C@H](C)NC(=O)[C@H](CCCCN)NC(=O)[C@H](CCCNC(=N)N)NC(=O)CNC(=O)[C@@H](N)CCCNC(=N)N)C(C)C)C(=O)N[C@@H](CCCCN)C(=O)O [Peptide B4010-V5A] (I: H-RGRKAVRRKKK-OH / II: H-RGRKAVRRK / III: H-RGRKAVRR / IV: H-RGRKAVRR; amide I:9-IV:C, I:10-II:C, II:9-III:C)
IOBA-NHC cells
  EC50: 190 µM
